The assay addresses Envelope glycoprotein gp160 (Human immunodeficiency virus 1, UniProt Q6QLK5). Description: cell-free HIV fusion peptide-binding blockers – biochemical, uHTS, fluorescence dequenching, […] (AID 1986).

Active and inactive are the calls of the source. No stated cut-off is given here; in the data, actives have a measured IC50 and inactives only a lower limit.

Envelope glycoprotein gp160, sequence (Q6QLK5 whole entry, the tested form may be a part): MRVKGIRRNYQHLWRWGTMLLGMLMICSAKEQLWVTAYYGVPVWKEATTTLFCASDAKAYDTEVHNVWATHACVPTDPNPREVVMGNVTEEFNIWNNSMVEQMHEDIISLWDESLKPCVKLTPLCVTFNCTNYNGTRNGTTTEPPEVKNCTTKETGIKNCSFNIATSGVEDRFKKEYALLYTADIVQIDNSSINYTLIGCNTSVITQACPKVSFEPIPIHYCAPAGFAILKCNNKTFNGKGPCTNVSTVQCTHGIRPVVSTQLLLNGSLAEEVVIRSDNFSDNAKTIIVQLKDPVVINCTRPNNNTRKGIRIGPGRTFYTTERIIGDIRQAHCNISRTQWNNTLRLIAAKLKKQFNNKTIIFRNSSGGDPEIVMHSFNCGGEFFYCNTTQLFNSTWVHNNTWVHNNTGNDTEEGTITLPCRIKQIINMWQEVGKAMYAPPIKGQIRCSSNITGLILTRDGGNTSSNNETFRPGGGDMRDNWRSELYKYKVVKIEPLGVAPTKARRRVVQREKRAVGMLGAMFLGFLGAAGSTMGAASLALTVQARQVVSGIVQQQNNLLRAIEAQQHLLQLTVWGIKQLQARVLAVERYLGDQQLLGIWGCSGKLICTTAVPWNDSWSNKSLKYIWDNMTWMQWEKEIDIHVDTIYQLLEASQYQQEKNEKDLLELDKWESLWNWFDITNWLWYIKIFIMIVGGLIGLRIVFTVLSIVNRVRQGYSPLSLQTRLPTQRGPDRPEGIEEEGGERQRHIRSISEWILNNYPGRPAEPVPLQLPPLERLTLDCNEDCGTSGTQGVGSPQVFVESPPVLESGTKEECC

In general, IC50 refers to the concentration needed to halve the response being measured. As for `N#Cc1c(-c2ccccc2)nc(SCc2cccc(C(F)(F)F)c2)[nH]c1=O`, the IC50 is 10.4 µM (active).
For the compound `O=[N+]([O-])c1cc(Cl)cc(/C=N/NC(=S)Nc2cc(S(=O)(=O)N3CCOCC3)ccc2Cl)c1O`, the IC50 is 9.41 µM (active).

(Values after ChEMBL document CHEMBL1201862, “PubChem BioAssay data set” (2004).)
